Laboratory results reported in US5800838A, “Composition that inhibits or destroys at least one unicellular living organism containing fluorine F- and Lithium li+” (priority 1987, dated 1998).
Like-named read-outs stand apart in the source and are kept apart here.

What was measured:
Gardnerella vaginalis [1] = experiment: Number of strains inhibited, bactericidal substance incorporated in culture medium (first trial); format: cell-based; settings: for MBC: Gardnerella vaginalis, 24 h, read-out: totally lethal concentration; for number of strains inhibited out of the 32 tested: NaF or LiF 1 mg/l where added
Experimental: In the first trial, the sample of bactericidal substance was incorporated directly in the specific culture edium of the microorganism. A concentration series of the bactericidal substance was prepared in the geometric ratio of 2, from 400 μg/ml to 1.56 μg/ml. The cell concentration used in the seeding of the Petri dishes was […]. A 24-hour incubation was performed at 37° C. and then, for each wild-type strain tested, the concentration of primary principle destroying all the microorganisms (see method of Professor F. CATALAN et al., Institut A. FOURNIER, PARIS) was determined. The trail was performed on 32 wild-type strains of Gardnerella vaginalis originating from hospital sources and with benzalkonium chloride and then nonoxinol 9 as active principles, and with sodium fluoride NaF at a concentration of 1 mg/l and then lithium fluoride LiF at a concentration of 1 mg/l as activating principles.

MAC COY cells = settings: mouse
spermatozoa = experiment: SANDERS-CRAMER total spermicidal test according to IPPF standards; format: cell-based; settings: with 1 ml solution containing 0.0001% lithium fluoride; in the initial 1 millilitre
Staphylococcus aureus [2] = experiment: MIC on wild-type hospital strains (Example 6); format: cell-based; settings: in the presence of LiF at 1 mg/l, 8 strains
Experimental: (§1) The MIC of benzalkonium chloride, alone and in the presence of LiF at a concentration of 1 mg/l, was determined with respect to other wild-type strains originating from hospital sources namely Streptococcus (6 strains). Staphylococcus aureus (8 strains). Salmonella typhimurium (3 strains) and Sarcina lutea (1 strain).

Salmonella typhimurium = experiment: MIC on wild-type hospital strains (Example 6); format: cell-based; settings: Salmonella enterica, 3 strains
Experimental: as §1

Sarcina lutea [3] = experiment: MIC on wild-type hospital strains (Example 6); format: cell-based; settings: Micrococcus luteus, 1 strain
Experimental: as §1

Streptococcus = experiment: MIC on wild-type hospital strains (Example 6); format: cell-based; settings: 6 strains
Experimental: as §1

Ducrey's bacillus = experiment: MIC on hospital strains (Example 13); format: cell-based; settings: read-out: MIC of benzalkonium chloride
Experimental: (§2) The same trials as in example 12 were carried out on hospital strains of various microorganisms.

Neisseria gonorrhoea = experiment: MIC on hospital strains (Example 13); format: cell-based; settings: read-out: MIC of benzalkonium chloride
Experimental: as §2

Gardenerella vaginalis = experiment: MIC on hospital strains (Example 13); format: cell-based; settings: read-out: MIC of benzalkonium chloride
Experimental: as §2

Candida albicans = experiment: MIC on hospital strains (Example 13); format: cell-based; settings: read-out: MIC of benzalkonium chloride
Experimental: as §2

Staphylococcus aureus [4] = experiment: MIC on hospital strains (Example 13); format: cell-based; settings: read-out: MIC of benzalkonium chloride
Experimental: as §2

Escherichia coli = experiment: MIC on hospital strains (Example 13); format: cell-based; settings: read-out: MIC of benzalkonium chloride
Experimental: as §2

Aspergillus niger [5] = experiment: MIC on hospital strains (Example 13); format: cell-based; settings: read-out: MIC of benzalkonium chloride
Experimental: as §2

Trichomonas vaginalis = experiment: MIC on hospital strains (Example 13); format: cell-based; settings: read-out: MIC of benzalkonium chloride
Experimental: as §2

Sarcina lutea [6] = experiment: MIC on hospital strains (Example 13); format: cell-based; settings: Micrococcus luteus, read-out: MIC of benzalkonium chloride
Experimental: as §2

Bacillus subtilis = experiment: MIC on hospital strains (Example 13); format: cell-based; settings: read-out: MIC of benzalkonium chloride
Experimental: as §2

Streptococcus faecalis = experiment: MIC on hospital strains (Example 13); format: cell-based; settings: Enterococcus faecalis, read-out: MIC of benzalkonium chloride
Experimental: as §2

Gardnerella vaginalis [7] = experiment: Contact methodology AFNOR standard I 72-151, strains surviving (second trial); format: cell-based; settings: 15-min contact, NaF or LiF 1 mg/l where added
Experimental: The second trial carried out was performed according to the contact methodology described in AFNOR standard I 72-151, by counting the strains surviving after a 15-min active substance/microbacterial solution contact followed by a filtration on a membrane (porosity 0.22 μm).
In this trial, 26 wild-type strains of Gardnerella vaginalis were tested, originating from hospital sources. The starting solution contained 0.1% of benzalkonium chloride, and was then diluted to 10^-1, 10^-2, 10^-3 and 10^-4. The results are summarized in the table below, which gives the total number of strains surviving (out of the 26 tested) in terms of the dilution.

Aspergillus niger [8] = experiment: MIC on hospital strains of Aspergillus niger; format: cell-based; settings: read-out: MIC of the primary active principle
Description: The methodology employed is that described by Professor F. CATALAN, P. SEDNAOUI, A. MILOVANOVIC et al., Institut A. FOURNIER, PARIS.
With the same methodology, the following results were observed on hospital strains of Aspergillus niger: […]

[9] = in the presence of LiF at 1 mg/l
[10] = in the presence of LiF at 1 ppm

## CCCCCCCCCCCCCC[N+](C)(C)Cc1ccccc1.[Cl-] [benzalkonium chloride, myristyldimethylbenzylammonium chloride]
Gardnerella vaginalis [1]; alone
  MBC: 50 µg/mL
Gardnerella vaginalis [1]; in the presence of LiF
  MBC: 12.5 µg/mL
Gardnerella vaginalis [1]; in the presence of NaF
  MBC: 25 µg/mL
Gardnerella vaginalis [1]; primary active principle 1.56 mg/l
  number of strains inhibited out of the 32 tested: 0
Gardnerella vaginalis [1]; primary active principle 3.125 mg/l
  number of strains inhibited out of the 32 tested: 0
Gardnerella vaginalis [1]; primary active principle 6.25 mg/l
  number of strains inhibited out of the 32 tested: 1
Gardnerella vaginalis [1]; primary active principle 12.5 mg/l
  number of strains inhibited out of the 32 tested: 28
Gardnerella vaginalis [1]; primary active principle 25 mg/l
  number of strains inhibited out of the 32 tested: 31
Gardnerella vaginalis [1]; primary active principle 50 mg/l
  number of strains inhibited out of the 32 tested: 32
MAC COY cells
  threshold of cytotoxic activity: 0.01%
spermatozoa
  MIC of benzalkonium chloride: 0.0009%
Staphylococcus aureus [2]
  MIC: 0.3 µg/mL
Salmonella typhimurium; alone
  MIC: 17 µg/mL
Salmonella typhimurium; [9]
  MIC: 12 µg/mL
Sarcina lutea [3]; alone
  MIC: 15 µg/mL
Sarcina lutea [3]; [9]
  MIC: 11 µg/mL
Streptococcus; alone
  MIC: 18 to 20 µg/mL
Streptococcus; [9]
  MIC: 10 µg/mL
Ducrey's bacillus; alone
  MIC: 75 µg/mL
Ducrey's bacillus; [10]
  MIC: 62 µg/mL
Neisseria gonorrhoea; alone
  MIC: 1.15 µg/mL
Neisseria gonorrhoea; [10]
  MIC: 0.6 µg/mL
Gardenerella vaginalis; alone
  MIC: 50 µg/mL
Gardenerella vaginalis; [10]
  MIC: 41 µg/mL
Candida albicans; alone
  MIC: 50 µg/mL
Candida albicans; [10]
  MIC: 35 µg/mL
Staphylococcus aureus [4]; alone
  MIC: 1.56 µg/mL
Staphylococcus aureus [4]; [10]
  MIC: 1 µg/mL
Escherichia coli; alone
  MIC: 8 µg/mL
Escherichia coli; [10]
  MIC: 6.5 µg/mL
Aspergillus niger [5]; alone
  MIC: 85 µg/mL
Aspergillus niger [5]; [10]
  MIC: 80 µg/mL
Trichomonas vaginalis; alone
  MIC: 1.3 µg/mL
Trichomonas vaginalis; [10]
  MIC: 0.9 µg/mL
Sarcina lutea [6]; alone
  MIC: 11 µg/mL
Sarcina lutea [6]; [10]
  MIC: 7.5 µg/mL
Bacillus subtilis; alone
  MIC: 8 µg/mL
Bacillus subtilis; [10]
  MIC: 5.4 µg/mL
Streptococcus faecalis; alone
  MIC: 15 µg/mL
Streptococcus faecalis; [10]
  MIC: 9 µg/mL
Gardnerella vaginalis [7]; 0.1% solution diluted 10^-1
  total number of strains surviving (out of the 26 tested): 0
Gardnerella vaginalis [7]; 0.1% solution diluted 10^-2
  total number of strains surviving (out of the 26 tested): 18
Gardnerella vaginalis [7]; 0.1% solution diluted 10^-3
  total number of strains surviving (out of the 26 tested): 22
Gardnerella vaginalis [7]; 0.1% solution diluted 10^-4
  total number of strains surviving (out of the 26 tested): 26
Aspergillus niger [8]; alone
  MIC: 50 µg/mL
Aspergillus niger [8]; in the presence of LiF at 0.96 mg/l and of KATHON CG preservative at 0.234 mg/l
  MIC: 100 µg/mL
Aspergillus niger [8]; in the presence of LiF at 0.96 mg/l
  MIC: 135 µg/mL
